Experimental data taken from paper PMC10423278, “Delivered complementation in planta (DCIP) enables measurement of peptide-mediated protein delivery efficiency in plants” (Communications Biology, 2023).
No end group written: not given here.

Key:
[1] = system: DCIP expressing N. benthamiana leaves; experiment: Delivered complementation in planta (DCIP), infiltrated leaf discs, confocal imaging of nuclear sfGFP/mCherry; type: cell-based, Nicotiana benthamiana; conditions: for DCIP delivery signal, statistical significance vs water infiltration control: N = 6, Kruskal–Wallis/Dunn
Protocol: The DCIP protocol involves transient expression of DCIP in N. benthamiana. 3 d.p.i., leaves are infiltrated with an aqueous solution of cargo that contains the GFP11 tag. Immediately after infiltration, the infiltrated leaves are either left intact or a leaf disc is excised from the infiltrated area and plated on pH 5.7 ½ MS. After a predetermined incubation time, the leaves are imaged on a confocal laser scanning microscope. For quantitative imaging, the resulting images are then automatically analyzed using Cell Profiler[30] for nuclear sfGFP and mCherry fluorescence (Fig. 1a). A detailed methodology is provided in the “Methods” section.
Three days after agroinfiltration, DCIP-expressing leaves were infiltrated with the treatment solutions. Unless otherwise stated, an 8 mm punch was then excised from the infiltrated area and plated, abaxial side up, onto ½ MS pH 5.7 agar plates. The plates were then left to incubate under ambient conditions for 4–5 h before imaging. For cold temperature treatment, after infiltration with ice-cold solutions of R9-GFP11 and disc excision, the leaf discs were plated onto ice-cold agar and immediately transferred to a 4 °C refrigerator for incubation. After incubation, the agar plates with leaf discs were kept on ice until the moment of imaging. For in situ incubation, leaves were simply infiltrated and the plant was returned to the growing chamber for incubation. All peptides were dissolved in sterile water and all recombinant proteins were dissolved in 10 mM Tris pH 7.4, 10 mM NaCl for infiltration.
Excised leaf discs were imaged on a Zeiss LSM880 laser scanning confocal microscope. Images for semi-quantitative analysis were collected using a ×20/1.0NA Plan-apochromat water immersion objective and larger field-of-views were collected using a ×5 objective. Leaf discs were mounted by sandwiching a droplet of water between the leaf disc and a #1.5 cover glass. BFP, sfGFP, mCherry, and chloroplast autofluorescence images were acquired by excitation with a 405, 488, 561, and 635 nm laser, respectively. The emission bands collected for BFP, sfGFP, mCherry, and autofluorescence were 410–529, 493–550, 578–645, and 652–728 nm, respectively. All images were collected such that the aperture was set to 1 Airy-unit in the mCherry channel. Images and profile plots were prepared for publication using Zen Blue software. Profile plots were smoothed by taking a moving window of three measurements and normalized to the maximum smoothed intensity for each color. For quantification experiments, z-stacks were acquired with the imaging depth set to capture the epidermal layer down to the point where mCherry nuclei could no longer be detected. z-stacks from four fields of view were acquired for every treatment condition. Quantitative image analysis and downstream processing was performed using Cell Profiler 3.0. […] Cell Profiler was then used to quantify the number, mCherry intensity, GFP intensity, and red (mCherry)/green (sfGFP) ratio of the projected nuclei.
Data obtained from Cell Profiler was processed using a script written in Python 3.9. Using the Cell Profiler data, GFP positive nuclei were counted using a Python script by setting a threshold defined as a one-tailed 99% confidence interval above the mean green/red ratio in the untreated control or water infiltration control of each experiment. […]

f-actin = experiment: cytoDCIP delivery-mediated actin labeling (Lifeact/f-actin scaffolding); type: cell-based, Nicotiana benthamiana
Excerpt: After confirming that recombinant proteins could be efficiently delivered into plant cells with R9 CPP, we asked if delivered proteins could subsequently mediate protein–protein interactions. Being able to mediate protein–protein interactions using delivered proteins could enable new technologies that alter plant physiology. Therefore, in a proof-of-concept experiment, we delivered the 1.9 kDa f-actin binding peptide, Lifeact[50], tagged with GFP11 and R9 (Fig. 6a) into cytoDCIP expressing N. benthamiana leaves. In this scheme, when Lifeact is internalized, GFP11 acts as a scaffold to tether cytoDCIP to actin filaments through the Lifeact/f-Actin interaction. […]
(§1) Excised leaf discs were imaged on a Zeiss LSM880 laser scanning confocal microscope. Images for semi-quantitative analysis were collected using a ×20/1.0NA Plan-apochromat water immersion objective and larger field-of-views were collected using a ×5 objective. […] For quantification experiments, z-stacks were acquired with the imaging depth set to capture the epidermal layer down to the point where mCherry nuclei could no longer be detected. z-stacks from four fields of view were acquired for every treatment condition. Quantitative image analysis and downstream processing was performed using Cell Profiler 3.0. […]

[2] = system: cytoDCIP-expressing N. benthamiana leaf; experiment: cytoDCIP nuclear localization of delivered AtWUS; type: cell-based, Nicotiana benthamiana; conditions: 140 µM, leaf disc, 6 h
Excerpt: After establishing the feasibility of using DCIP to assess recombinant protein delivery in intact leaves, we sought to examine R9-mediated delivery of the Arabidopsis plant morphogenic transcription factor, WUSCHEL (AtWUS), in N. benthamiana leaves. AtWUS was chosen as a candidate cargo due to its applications for somatic embryogenesis in plants and its high degree of molecular characterization[54],[55]. […] Because AtWUS is a transcription factor, we also expected to see GFP11-AtWUS-R9 localize to the nucleus without the SV40 NLS of DCIP. To test this, we infiltrated a cytoDCIP-expressing N. benthamiana leaf with 140 µM GFP11-AtWUS-R9. If the delivered AtWUS has active NLS activity, we would expect green fluorescence localized to only the nucleus and excess, uncomplemented mCherry-GFP1-10 to remain in the cytosol. […]
as §1, with “condition.” for “condition. Quantitative image analysis and downstream processing was performed using Cell Profiler 3.0.”

downstream AtWUS genes = experiment: RT-qPCR of direct targets of AtWUS in treated seedlings; type: in vivo, Arabidopsis thaliana; conditions: 24 h
Protocol: The previous results in N. benthamiana motivated us to determine whether or not the delivered AtWUS is transcriptionally active. We treated 12-day-old Arabidopsis seedlings for 24 h with 1 µM GFP11-AtWUS-R9. A. thaliana was chosen as a model species due to the well-characterized AtWUS pathway in A. thaliana. Seedlings were subsequently harvested and subjected to RT-qPCR analysis for six known direct targets of AtWUS (Fig. 7d). […] Ectopic expression of AtWUS downregulates the expression of cell identity markers ARR6, AS2, KAN1/2 and YAB3 by binding directly to their promoters[56],[57], and upregulates the expression of its own negative regulator, CLV3[58]. […] In this second experiment, 3 µM of protein was also used due to apparent batch-to-batch variation of activity and lower purity of the recombinant protein (Supplemental Fig. S12b, c).
Arabidopsis (Col-0) seedlings were grown in 12-well culture plates with 8–10 seedlings per well in 1 mL of 1x MS media supplemented with 0.5% sucrose and 2.5 mM MES, pH 5.7. Seeds were sterilized by washing in 70% ethanol for 30 s followed by a 15-min incubation in 50% bleach supplemented with 0.5% Tween-20 and rinsed 5x with DI water. Sterilized seeds were stratified in plates at 4 °C for 3 days after plating. Seedlings were grown at 22 °C under 16-h photoperiods for 12 days. To treat seedlings, the liquid media in each well was replaced with control and WUSCHEL treatments. Control wells were refreshed with 1 mL of MS growth media. WUSCHEL proteins were prepared for use by dialysis into 10 mM MES pH 5.7 for 2 h before dilution to their final concentration. Treatment wells were refreshed with 1 mL of 1 or 3 μM of protein (R9-GFP11, GFP11-AtWUS-R9, GFP11-AtWUS) dissolved in MS growth media. […]
Total RNA was extracted from Arabidopsis seedlings using an RNeasy Plant Mini Kit (Qiagen). […] Relative gene expression was determined using the ddCt method[80] using SAND1 as the reference gene. Relative gene expression was determined from four biological pools each containing 8–10 seedlings. […]

RKKRRQRRRGSGSRDHMVLHEYVNAAGIT [TAT-GFP11]
delivery efficiencies (percent GFP-positive nuclei) ([1]; 100 μM CPP-GFP11 conjugate, 4–5 h, N = 6): 30–80%
delivery efficiency normalized to R9 CPP ([1]; 100 μM, 4–5 h, N = 6): 0.87 times

RDHMVLHEYVNAAGIT [GFP11]
DCIP delivery signal, statistical significance vs water infiltration control ([1]; 100 μM, 4–5 h): no statistically significant signal

CC[C@H](C)[C@H](NC(=O)CNC(=O)[C@H](C)NC(=O)[C@H](C)NC(=O)[C@H](CC(N)=O)NC(=O)[C@@H](NC(=O)[C@H](Cc1ccc(O)cc1)NC(=O)[C@H](CCC(=O)O)NC(=O)[C@H](Cc1c[nH]cn1)NC(=O)[C@H](CC(C)C)NC(=O)[C@@H](NC(=O)[C@H](CCSC)NC(=O)[C@H](Cc1c[nH]cn1)NC(=O)[C@H](CC(=O)O)NC(=O)[C@H](CCCNC(=N)N)NC(=O)[C@H](CO)NC(=O)CNC(=O)[C@H](CO)NC(=O)CNC(=O)[C@H](CC(C)C)NC(=O)[C@H](Cc1ccc(O)cc1)NC(=O)[C@H](CCCCN)NC(=O)[C@H](CC(C)C)NC(=O)[C@@H](NC(=O)[C@H](CCCCN)NC(=O)[C@H](CCCCN)NC(=O)[C@H](Cc1ccccc1)NC(=O)[C@H](CC(C)C)NC(=O)[C@H](CCCCN)NC(=O)[C@@H](N)CCCCN)[C@@H](C)CC)C(C)C)C(C)C)C(=O)N[C@H](C(=O)O)[C@@H](C)O [BP100-GFP11]
sfGFP complementation observed by confocal imaging (qualitative) ([1]; 100 μM peptide, 4–5 h post-infiltration): rare instances of successful delivery
DCIP delivery signal, statistical significance vs water infiltration control ([1]; 100 μM, 4–5 h): no statistically significant signal

MGSSHHHHHHENLYFQSNARDHMVLHEYVNAAGITGGGGSGGGGSYFQSNAMGVADLIKKFESISKEEGIGSGSNGNSGSVSRRRRRRRRR* [GFP11-Lifeact-R9]
localization of sfGFP/mCherry signal in cytoDCIP leaves (actin filament labeling) (f-actin; 120 µM, leaf discs, 6 h, pavement cells): robust labeling of actin filaments

C/C1=C/C(=O)O[C@@H]2C[C@@H](CC[C@H](C)/C=C\CC1)O[C@@](O)([C@@H]1CSC(=O)N1)C2 [LatB, latrunculin B, reference compound]
actin filaments on cotreatment with LatB (f-actin; 25 µM LatB cotreated with GFP11-Lifeact-R9, 6 h): no actin filaments were observed

B1: GFP11-AtWUS: recombinant AtWUS with GFP11 tag, without R9 fusion, 38.5 kDa (plasmid 1BR9-AtWUSSTOP) (protein, UniProt Q9SB92 1-292, looked up)
Protein WUSCHEL: MEPPQHQHHHHQADQESGNNNNNKSGSGGYTCRQTSTRWTPTTEQIKILKELYYNNAIRSPTADQIQKITARLRQFGKIEGKNVFYWFQNHKARERQKKRFNGTNMTTPSSSPNSVMMAANDHYHPLLHHHHGVPMQRPANSVNVKLNQDHHLYHHNKPYPSFNNGNLNHASSGTECGVVNASNGYMSSHVYGSMEQDCSMNYNNVGGGWANMDHHYSSAPYNFFDRAKPLFGLEGHQEEEECGGDAYLEHRRTLPLFPMHGEDHINGGSGAIWKYGQSEVRPCASLELRLN
modifications: GFP11 tag
nuclear localization of delivered protein in cytoDCIP leaf [2]: possessed nuclear localization activity
CLV3 expression in GFP11-AtWUS-treated plants (downstream AtWUS genes; 3 µM): CLV3 downregulation
tested AtWUS target genes regulated in an expected manner, first experimental repeat (downstream AtWUS genes; 3 µM, six genes, N = 4): 3/6
tested AtWUS target genes regulated in an expected manner, second experimental repeat (downstream AtWUS genes; six genes, N = 4, repeat): 1/6
